Results from patent US11932657B2, “Heterocyclic compound” (priority 2018, dated 2024).

How the values were obtained:
[1] = system: immortalized megakaryocyte line (SeV2-MKCL); assay: Platelet production: static culturing of immortalized megakaryocyte line; format: cell-based; conditions: compound final concentration 0.1 μM, static culturing 6 to 7 days, control (DMSO) set to 1; platelets = CD41, CD42b and CD42a-positive cells
Method: Test Example 2 (Platelet Production: Static Culturing)
The immortalized megakaryocyte line (SeV2-MKCL) obtained according to the method described in WO 2016/204256 was washed twice with D-PBS(−) and then cultured in medium not containing doxycycline to terminate forced expression. Culturing was implemented by seeding the cells at 1 mL/well in a 24-well plate (#662160 (Greiner Rio-One)) at a seeding density of 1×10^5 cells/mL followed by static culturing in the medium indicated below.
The medium was obtained by adding the following components to IMDM serving as the basal medium (concentrations indicate final concentrations).
Culturing was implemented under conditions of 37° C. and 5% CO2. At the same time, the compound of the present invention (final concentration 0.1 μM) or DMSO (control) was added and cultured for 6 to 7 days. Thereafter, the number of platelets (CD41, CD42b, and CD42a-positive cells) was measured. The measurement method was as shown below. The same procedure was performed with the control.
A portion of the culture supernatant was harvested 6 to 7 days after culturing to terminate gene expression, and suspended with the following antibodies to stain them. eFluor 450-labeled anti-CD42a antibody (#48-0428-42 (eBioscience)) PE-labeled anti-CD42b antibody (#303906 (BioLegend)) APC-labeled anti-CD41 antibody (#303710 (BioLegend)) The number of platelets was counted using FACSVerse manufactured by BD 30 minutes after the stain reaction. In the measurement of the number of platelets, the number of cells was corrected using Flow-count beads (#7547053 (Beckman Coulter)).
The number of platelets produced from one megakaryocyte cell was calculated based on the number of platelets in the sample obtained by the FACS measurement, and the result was defined as platelet production efficiency (PLT/MK) and used for evaluation of drug efficacy of the compound. In addition, the specific activity at the time when the platelet production efficiency of the control was set to 1 was indicated as fold increase.

[2] = target: T1, aryl hydrocarbon receptor (AhR) (Homo sapiens, UniProt P35869); assay: AhR reporter gene assay (aryl hydrocarbon receptor antagonist activity, DRE-Luc HepG2 cells, TCDD-stimulated luciferase); format: cell-based
T1 construct: DRE-Luc HepG2 cells subcultured in a 225 cm^2 flask; endogenous in cells; host or cells: HepG2 (ATCC), stably transfected with the reporter hCYP1A1/pGL4.27 (DRE-Luc HepG2)
T1 sequence (P35869 11-848): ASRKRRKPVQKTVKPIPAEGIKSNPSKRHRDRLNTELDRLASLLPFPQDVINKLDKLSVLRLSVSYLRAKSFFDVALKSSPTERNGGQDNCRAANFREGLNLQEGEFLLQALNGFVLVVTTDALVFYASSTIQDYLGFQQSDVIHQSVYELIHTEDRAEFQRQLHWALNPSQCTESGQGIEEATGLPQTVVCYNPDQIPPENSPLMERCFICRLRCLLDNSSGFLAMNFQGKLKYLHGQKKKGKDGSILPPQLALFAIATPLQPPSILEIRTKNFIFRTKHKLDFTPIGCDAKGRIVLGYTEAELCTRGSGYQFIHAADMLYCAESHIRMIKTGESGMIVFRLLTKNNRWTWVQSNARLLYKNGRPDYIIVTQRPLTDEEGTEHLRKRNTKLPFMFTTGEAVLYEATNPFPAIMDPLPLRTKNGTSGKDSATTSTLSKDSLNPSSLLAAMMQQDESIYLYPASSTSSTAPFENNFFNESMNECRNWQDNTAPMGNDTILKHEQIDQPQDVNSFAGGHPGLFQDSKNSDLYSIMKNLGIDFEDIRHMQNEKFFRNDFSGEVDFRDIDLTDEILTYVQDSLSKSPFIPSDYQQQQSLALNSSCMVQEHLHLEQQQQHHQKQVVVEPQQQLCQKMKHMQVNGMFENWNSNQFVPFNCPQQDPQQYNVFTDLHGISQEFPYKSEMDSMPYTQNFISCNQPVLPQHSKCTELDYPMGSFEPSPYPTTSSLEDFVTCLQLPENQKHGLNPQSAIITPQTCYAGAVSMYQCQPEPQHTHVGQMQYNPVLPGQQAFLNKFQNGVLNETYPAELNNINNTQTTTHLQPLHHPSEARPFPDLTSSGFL
Method: Test Example 1 (Aryl Hydrocarbon Receptor Antagonist Activity)
An expression vector, hCYP1A1/pGL4.27 was introduced into HepG2 cells (derived from American Type Culture Collection (ATCC)) that were seeded in 6-well plates (#3810-006 (Iwaki)) at 1.2×10^6 cells/well, using Lipofectamine 3000 (#100022050 (Invitrogen)). Referring to Garrion P M et al., Fundam Appl Toxicol, 30, 194 (1996), the vector hCYP1A1/pGL4.27 incorporated the human CYP1A1 promotor region including dioxin responsive element (DRE) region of the AhR binding region into the XhoI-BglII restriction enzyme site of pGL4.27 (#E8451 (Promega)). After 24 hours, medium-1 was replaced, and after 48 hours, the medium-1 containing hygromycin B (200 to 1000 μg/mL) was subjected to drug treatment. Culturing using the medium containing hygromycin B was continued for about 1 month to clone 24 clones showing drug resistance. A cell line showing high reporter activity was selected (DRE-Luc HepG2) from drug resistant lines using as an indicator luciferase activity (Dual-Glo Luciferase substrate, #E297A (Promega)) relative to an AhR agonist, 2,3,7,8-tetrachlorodibenzo-p-dioxin (TCDD) (#ED-901-B (CIL.)).
DRE-Luc HepG2 cells subcultured in a 225 cm^2 flask (#11-0005 (Iwaki)) were washed with PBS (#1419-144 (Gibco), Lot: 1896207), and thereto was added 8 mL of Trypsin-EDTA (0.05%) (#25300-054 (Gibco)). Thereafter, an excessive liquid was removed from the mixture, and the cells were stood at room temperature for 5 minutes. Thereto was added 10 mL of medium-2, the cells were recovered through a cell strainer (#352350 (Falcon), 70 μm), and the number of cells were then counted using a hemocytometer. A cell suspension was prepared at 3×10^5 cells/mL, 100 μL/well of the cell suspension was seeded into a 96-well white plate (#136101, F96 Microwell (Nunc)), and the cells were then cultured in a CO2 incubator (5% CO2, 37° C.). After 24 hours, the medium was aspirated, and thereto was added 100 μL of an assay medium solution including the compound of the present invention, and the cells were cultured in the CO2 incubator (5% CO2, 37° C.). After 24 hours, 11 μL of an assay medium solution including 5×10^−10 M TCDD (#ED-901-B (CIL.)) was added thereto and the cells were cultured in the CO2 incubator (5% CO2, 37° C.). After 24 hours, 50 μL of a reaction substrate (#E253B, Steady-Glo Luciferase substrate (Promega)) for Firefly Luciferase enzyme reaction was added to each well, and after 5 minute-shaking, the light emission intensity was measured with Wallac ARVO 1420sx (PerkinElmer).

Row | Compound | Static (vs veh): fold increase of platelet production efficiency (PLT/MK) [1] | IC50 [2] [nM]
1 | C[C@H]1CSc2nc3c(NCCc4ccc(O)c(-c5cccc(F)c5)c4)nc(-c4cncc(F)c4)nc3n21 [Example 31] | 5.9 | 0.46
2 | CC1(C)COc2nc3c(NCCc4ccc(O)c(-c5cccnc5)c4)nc(-c4cncc(F)c4)nc3n21 [Example 32, 4-[2-[[2-(5-fluoropyridin-3-yl)-8,8-dimethyl-7H-purino[8,9-b][1,3]oxazol-4-yl]amino]ethyl]-2-pyridin-3-ylphenol] | 6.8 | 29
3 | CC1(C)COc2nc3c(NCCc4ccc(O)c(-c5csc6ccccc56)c4)nc(-c4cncc(F)c4)nc3n21 [Example 35] | 6.0 | 12
4 | CC1(C)COc2nc3c(NCCc4ccc(O)c(-c5cccc(F)c5)c4)nc(-c4cncc(C#N)c4)nc3n21 [Example 36] | 2.7 | 0.7
5 | CC1(C)CSc2nc3c(NCCc4ccc(O)c(-c5cccc(F)c5)c4)nc(-c4cncc(C#N)c4)nc3n21 [Example 37] | 2.1 | 0.53
6 | CC1(C)CSc2nc3c(NCCc4ccc(O)c(-c5ccccc5F)c4)nc(-c4cncc(C#N)c4)nc3n21 [Example 38] | 4.9 | 0.49
7 | C[C@@H]1CSc2nc3c(NCCc4ccc(O)c(-c5ccccc5F)c4)nc(-c4cncc(C#N)c4)nc3n21 [Example 39] | 4.3 | 1.2
8 | Cc1ccccc1-c1cc(CCNc2nc(-c3cncc(F)c3)nc3c2nc2n3C(C)(C)CO2)ccc1O [Example 40] | 9.8 | 40
9 | COc1ccccc1-c1cc(CCNc2nc(-c3cncc(F)c3)nc3c2nc2n3C(C)(C)CO2)ccc1O [Example 41] | 7.0 | 10
10 | CC1(C)COc2nc3c(NCCc4ccc(O)c(-c5ccc(F)cc5F)c4)nc(-c4cncc(F)c4)nc3n21 [Example 42] | 4.8 | 6.1
11 | CC1(C)COc2nc3c(NCCc4ccc(O)c(-c5cncc(F)c5)c4)nc(-c4cncc(F)c4)nc3n21 [Example 43, 2-(5-fluoropyridin-3-yl)-4-[2-[[2-(5-fluoropyridin-3-yl)-8,8-dimethyl-7H-purino[8,9-b][1,3]oxazol-4-yl]amino]ethyl]phenol] | 7.1 | 26
12 | CC1(C)COc2nc3c(NCCc4ccc(O)c(-c5c(F)cccc5F)c4)nc(-c4cncc(F)c4)nc3n21 [Example 44] | 3.4 | 3.5
13 | CC1(C)COc2nc3c(NCCc4ccc(O)c(-c5c(F)cccc5F)c4)nc(-c4cncc(C#N)c4)nc3n21 [Example 45] | 2.4 | 11
14 | CC1(C)COc2nc3c(NCCc4ccc(O)c(-c5ccccc5)c4)nc(-c4cncc(C#N)c4)nc3n21 [Example 46, 5-[4-[2-(4-hydroxy-3-phenylphenyl)ethylamino]-8,8-dimethyl-7H-purino[8,9-b][1,3]oxazol-2-yl]pyridine-3-carbonitrile] | 5.0 | 9.9
15 | CC1(C)CSc2nc3c(NCCc4ccc(O)c(-c5ccccc5)c4)nc(-c4cncc(F)c4)nc3n21 [Example 47] | 3.7 | 0.38
16 | CC1(C)CSc2nc3c(NCCc4ccc(O)c(-c5ccccc5)c4)nc(-c4cncc(C#N)c4)nc3n21 [Example 48] | 3.5 | 0.42
17 | C[C@@H]1CSc2nc3c(NCCc4ccc(O)c(-c5ccccc5)c4)nc(-c4cncc(F)c4)nc3n21 [Example 49] | 5.5 | 0.36
18 | C[C@@H]1CSc2nc3c(NCCc4ccc(O)c(-c5ccccc5)c4)nc(-c4cncc(C#N)c4)nc3n21 [Example 50] | 6.6 | 0.7
19 | CC1(C)CSc2nc3c(NCCc4ccc(O)c(-c5ccccc5F)c4)nc(-c4ccc5nccn5c4)nc3n21 [Example 52] | 5.3 | 1.8
20 | CC1(C)CSc2nc3c(NCCc4ccc(O)c(-c5cccc(F)c5)c4)nc(-c4ccc5nccn5c4)nc3n21 [Example 53] | 5.3 | 1.2
21 | CC1(C)COc2nc3c(NCCc4ccc(O)c(-c5cc(C#N)ccc5F)c4)nc(-c4cncc(F)c4)nc3n21 [Example 54] | 5.9 | 4.1
22 | CC1(C)COc2nc3c(NCCc4ccc(O)c(-c5cccc(C#N)c5F)c4)nc(-c4cncc(F)c4)nc3n21 [Example 55] | 6.8 | 1.2
23 | CC1(C)COc2nc3c(NCCc4ccc(O)c(-c5cc(F)cc(C#N)c5)c4)nc(-c4cncc(F)c4)nc3n21 [Example 56] | 6.5 | 13
24 | CC1(C)CSc2nc3c(NCCc4ccc(O)c(-c5cccc(C#N)c5)c4)nc(-c4cncc(F)c4)nc3n21 [Example 57] | 4.9 | 0.39
25 | C[C@@H]1CSc2nc3c(NCCc4ccc(O)c(-c5cccc(C#N)c5)c4)nc(-c4cncc(F)c4)nc3n21 [Example 58] | 5.1 | 0.46
